From publication PMC3068151 (PLoS ONE, 2011)

Assays:
[1] = system: EphA kinases; experiment: ELISA displacement of biotinylated ephrinA1-Fc from immobilized EphA-Fc ectodomains; type: binding; details: biotinylated ephrinA1-Fc at KD concentration
Protocol: Our chemical collection (Table S1) was stocked in a 20 mM dimethyl sulfoxide (DMSO) solution and we performed binding assay at a concentration of 200 µM. Only compounds displacing more than 40% ephrinA1 from EphA2 receptor were considered for a full concentration-binding curve. […] The day after wells were washed three times with washing buffer (PBS +0.05% tween20, pH 7.5) and blocked with 300 µl of blocking solution (PBS +0.5% BSA) for 1 hour at 37°C. Compounds were added to the wells at proper concentration in 1% dimethyl sulfoxide (DMSO) and incubated at 37°C for 1 hour. Biotinylated ephrinA1-Fc (R&D BT602) was added at 37°C for 4 hours at 30 ng/ml in displacement assays or in a range from 1 to 2000 ng/ml in saturation studies. […] The reaction was stopped with 3N HCl 100 µl/well and the absorbance was measured using an ELISA plate reader (Sunrise, TECAN, Switzerland) at 450 nm.
Data are the means of at least three independent experiments ± st. err.

[2] = system: EphB kinases; experiment: ELISA displacement of biotinylated ephrinB1-Fc from immobilized EphB-Fc ectodomains; type: binding; details: biotinylated ephrinB1-Fc at KD concentration
[3] = system: PC3 cells; experiment: PC3 cell binding / adhesion assay (MTT readout); type: cell-based, human
Protocol: 96 well ELISA high binding plates were incubated overnight at 4°C with ephrinA1-Fc 1 µg/cm^2, 100 µl per well. The plates were washed three times with PBS and blocked for 1 hour with BSA 1%. Cells were treated with proper concentration of substance or DMSO 0.5% for 30 minutes in vials on a shaker. After that, plates were washed with PBS and incubated with 100 µl 5×10^5 cells/ml for 1 hour at 37°C. Finally, plates were washed with PBS and adhering cells were quantified using MTT colorimetric assay.
96-wells plates for cell culture were untretaed (A) or coated with 1 µg/cm^2 ephrinA1-Fc (B) overnight. PC3 cells were treated with the indicated compounds for 30 minutes in a tube and let to adhere for 60 minutes on the wells. Cell adhesion is reported normalizing adhesion of Fc to 100%. […] Data are the means of at least three independent experiment ± st. err. One-way ANOVA followed by Dunnet's post test was performed comparing Fc to all other column. No significant differences were detected for data in graph A. *, p<0.05, **,p<0.01.

[4] = biological target: EphA2 (Homo sapiens, UniProt P29317); details: up to 100 µM
Protocol: Recombinant human EphA2 enzyme activity was evaluated with LANCE® method using ATP and Ulight-TK peptide as substrate (http://las.perkinelmer.com/).

[5] = biological target: T1, IRKβ (Homo sapiens, UniProt P06213); experiment: IRKβ activity, alpha Technology; type: cell-based; details: 100 µM, 100 nM insulin
T1 construct: in HepG2 or A431 cells, respectively; endogenous in cells; host or cells: HepG2 according to b24; A431 according to the order in the legend b55
Protocol: (§1) Cells were stimulated with 5 nM IGF1 or 100 nM insulin for 10 minutes, lysed and a fluorescence acceptor (alphaLISA protein A beads coated with anti-phospho-IRKβ or -IGFR1β) added for 2 hours. A fluorescence donor (streptavidin coupled-beads) coated with an antibody towards IRKβ or IGFR1β was incubated for 2 hours and the signal was measured at λex = 680 nm and λem = 500 nm and 600 nm using a microplate reader (EnVision, Perkin Elmer, Waltham, MA, USA).
(§2) These assays were performed at CEREP (Celle L'Evescault, France).
(§3) A, B) EGFR phosphorylation was induced by 30 ng/ml and 10 ng/ml EGF on PC3 (A) and HT29 (B) cells, respectively. […] Data are the means of two experiments ± st. err.

[6] = biological target: T2, IGFR1β (Homo sapiens, UniProt P08069); experiment: IGFR1β activity, alpha Technology; type: cell-based; details: 100 µM, 5 nM IGF1
T2 construct: in HepG2 or A431 cells, respectively; endogenous in cells; host or cells: A431 according to b24; HepG2 according to the order in the legend b55
Protocol: as §1, §2, §3

T1 sequence (P06213 763-1382 limits assumed): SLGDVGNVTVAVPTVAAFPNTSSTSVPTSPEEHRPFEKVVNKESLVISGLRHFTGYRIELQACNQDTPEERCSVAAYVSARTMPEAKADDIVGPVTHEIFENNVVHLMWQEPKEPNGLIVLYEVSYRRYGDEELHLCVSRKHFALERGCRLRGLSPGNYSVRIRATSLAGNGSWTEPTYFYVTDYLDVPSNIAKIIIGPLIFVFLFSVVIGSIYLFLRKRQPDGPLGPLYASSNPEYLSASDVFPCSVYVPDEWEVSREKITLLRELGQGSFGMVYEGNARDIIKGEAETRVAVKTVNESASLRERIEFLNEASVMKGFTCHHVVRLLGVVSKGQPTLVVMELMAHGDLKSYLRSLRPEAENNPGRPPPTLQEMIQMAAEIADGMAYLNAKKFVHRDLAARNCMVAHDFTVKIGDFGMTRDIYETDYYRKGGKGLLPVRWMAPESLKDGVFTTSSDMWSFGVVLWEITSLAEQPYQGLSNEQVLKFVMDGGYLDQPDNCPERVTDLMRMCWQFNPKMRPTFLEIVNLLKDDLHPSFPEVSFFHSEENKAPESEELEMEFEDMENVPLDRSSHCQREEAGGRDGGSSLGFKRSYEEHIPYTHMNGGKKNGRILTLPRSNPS
T1 sequence (P06213 28-758 partner limits assumed): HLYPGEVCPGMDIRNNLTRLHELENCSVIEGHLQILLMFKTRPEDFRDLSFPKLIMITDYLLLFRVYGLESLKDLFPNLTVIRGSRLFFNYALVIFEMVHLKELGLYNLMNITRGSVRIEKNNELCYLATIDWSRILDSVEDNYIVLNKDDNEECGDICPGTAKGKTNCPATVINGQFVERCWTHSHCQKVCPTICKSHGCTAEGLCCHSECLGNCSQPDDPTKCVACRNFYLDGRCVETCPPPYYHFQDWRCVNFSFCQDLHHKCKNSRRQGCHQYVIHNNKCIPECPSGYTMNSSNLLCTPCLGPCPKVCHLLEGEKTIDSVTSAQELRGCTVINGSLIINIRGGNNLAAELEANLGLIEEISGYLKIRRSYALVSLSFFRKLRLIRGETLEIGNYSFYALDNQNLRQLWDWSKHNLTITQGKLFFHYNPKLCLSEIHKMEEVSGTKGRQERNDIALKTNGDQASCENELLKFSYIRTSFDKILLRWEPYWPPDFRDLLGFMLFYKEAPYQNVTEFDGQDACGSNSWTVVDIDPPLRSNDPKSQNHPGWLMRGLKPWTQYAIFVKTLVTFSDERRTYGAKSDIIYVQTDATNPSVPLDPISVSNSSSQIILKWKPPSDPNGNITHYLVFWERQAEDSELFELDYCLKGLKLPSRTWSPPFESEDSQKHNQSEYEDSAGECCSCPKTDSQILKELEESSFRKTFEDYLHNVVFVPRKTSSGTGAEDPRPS
Chain of EphA2 (P29317 24-976): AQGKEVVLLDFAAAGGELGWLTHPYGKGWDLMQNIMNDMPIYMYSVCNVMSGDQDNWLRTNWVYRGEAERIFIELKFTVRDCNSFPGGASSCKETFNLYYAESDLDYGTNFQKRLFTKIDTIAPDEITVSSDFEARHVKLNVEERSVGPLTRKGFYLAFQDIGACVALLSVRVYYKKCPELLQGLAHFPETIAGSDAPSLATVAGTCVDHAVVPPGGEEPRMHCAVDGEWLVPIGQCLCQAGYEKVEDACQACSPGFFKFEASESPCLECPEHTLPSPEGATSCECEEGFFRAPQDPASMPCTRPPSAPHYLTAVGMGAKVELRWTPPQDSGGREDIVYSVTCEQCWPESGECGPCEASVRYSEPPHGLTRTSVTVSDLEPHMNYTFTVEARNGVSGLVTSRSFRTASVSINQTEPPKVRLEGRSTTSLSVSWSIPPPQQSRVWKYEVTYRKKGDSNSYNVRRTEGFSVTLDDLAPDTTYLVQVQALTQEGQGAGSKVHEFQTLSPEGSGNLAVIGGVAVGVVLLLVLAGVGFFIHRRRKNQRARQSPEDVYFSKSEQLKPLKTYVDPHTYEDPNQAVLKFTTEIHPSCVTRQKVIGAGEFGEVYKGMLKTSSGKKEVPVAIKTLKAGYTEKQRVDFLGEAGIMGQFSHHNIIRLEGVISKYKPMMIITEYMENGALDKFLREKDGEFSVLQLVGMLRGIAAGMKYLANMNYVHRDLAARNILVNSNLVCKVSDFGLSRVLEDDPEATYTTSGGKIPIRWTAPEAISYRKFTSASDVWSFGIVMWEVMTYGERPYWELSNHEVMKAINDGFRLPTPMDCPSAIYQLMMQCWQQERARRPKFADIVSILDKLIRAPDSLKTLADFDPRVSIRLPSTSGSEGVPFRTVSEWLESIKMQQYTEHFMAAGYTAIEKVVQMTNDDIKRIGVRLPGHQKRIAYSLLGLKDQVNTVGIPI
T2 sequence (P08069 741-1367 limits assumed): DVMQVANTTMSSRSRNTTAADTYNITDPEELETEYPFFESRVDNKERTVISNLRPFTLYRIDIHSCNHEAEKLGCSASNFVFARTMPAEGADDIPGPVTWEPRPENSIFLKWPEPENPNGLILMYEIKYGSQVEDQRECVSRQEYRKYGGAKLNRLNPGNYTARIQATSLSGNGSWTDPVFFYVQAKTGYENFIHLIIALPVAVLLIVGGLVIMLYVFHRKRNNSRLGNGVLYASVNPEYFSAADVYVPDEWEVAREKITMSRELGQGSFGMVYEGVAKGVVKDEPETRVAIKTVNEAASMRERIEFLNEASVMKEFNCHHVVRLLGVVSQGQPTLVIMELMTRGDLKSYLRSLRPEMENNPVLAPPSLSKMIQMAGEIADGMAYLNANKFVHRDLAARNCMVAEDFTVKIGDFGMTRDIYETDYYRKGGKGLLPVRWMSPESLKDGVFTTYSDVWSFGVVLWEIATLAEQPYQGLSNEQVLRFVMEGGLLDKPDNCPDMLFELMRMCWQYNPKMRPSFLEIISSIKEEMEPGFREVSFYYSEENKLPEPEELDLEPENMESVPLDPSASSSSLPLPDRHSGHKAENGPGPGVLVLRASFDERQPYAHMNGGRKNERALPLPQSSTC
T2 sequence (P08069 31-736 partner limits assumed): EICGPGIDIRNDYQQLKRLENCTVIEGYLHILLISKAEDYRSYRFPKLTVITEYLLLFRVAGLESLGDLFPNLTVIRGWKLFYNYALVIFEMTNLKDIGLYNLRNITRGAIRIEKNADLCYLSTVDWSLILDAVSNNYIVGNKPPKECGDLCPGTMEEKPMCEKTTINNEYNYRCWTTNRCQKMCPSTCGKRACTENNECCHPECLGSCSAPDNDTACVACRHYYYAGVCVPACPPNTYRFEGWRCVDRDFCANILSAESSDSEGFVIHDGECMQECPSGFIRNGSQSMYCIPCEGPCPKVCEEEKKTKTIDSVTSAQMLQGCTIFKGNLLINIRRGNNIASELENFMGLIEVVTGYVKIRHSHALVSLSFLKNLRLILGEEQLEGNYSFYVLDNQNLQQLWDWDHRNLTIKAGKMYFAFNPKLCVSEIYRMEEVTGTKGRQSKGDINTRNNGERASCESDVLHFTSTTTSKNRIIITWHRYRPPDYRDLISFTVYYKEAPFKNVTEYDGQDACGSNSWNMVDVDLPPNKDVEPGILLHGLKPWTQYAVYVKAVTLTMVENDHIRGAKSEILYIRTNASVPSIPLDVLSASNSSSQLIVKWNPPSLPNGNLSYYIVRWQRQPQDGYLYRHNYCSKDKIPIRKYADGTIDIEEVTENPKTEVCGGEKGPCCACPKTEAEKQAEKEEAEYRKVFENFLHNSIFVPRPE

C[C@H](CCC(=O)O)[C@H]1CC[C@H]2[C@@H]3CC[C@@H]4C[C@H](O)CC[C@]4(C)[C@H]3CC[C@]12C [LCA, lithocholic acid]
displacement of ephrin-A1-Fc ectodomain from immobilized EphA-Fc ectodomains [1]: dose-dependently displaced | displacement of ephrin-B1-Fc ectodomain from immobilized EphB-Fc ectodomains [2]: dose-dependently displaced | PC3 adhesion to ephrinA1-Fc ([3]; ephrinA1-Fc coated plates, increasing concentrations): dose-dependently inhibited | aspecific PC3 cell adhesion ([3]; uncoated standard cell culture plates): neither ephrinA1-Fc nor LCA inhibited | effect on EphA2 enzymatic activity [4]: did not modify enzymatic activity | effect on IRKβ activity as agonist or antagonist [5]: failed to affect activity | effect on IGFR1β activity as agonist or antagonist [6]: failed to affect activity
